Source: patent US7612089B2, “Tetrahydroisoquinolines as factor Xa inhibitors” (Portola Pharmaceuticals, Inc., priority 2004, dated 2009)
pIC50: −log10 of the molar value.

Molecular target: T1, human plasma protein factor Xa (Homo sapiens, UniProt P00742)
T1 construct: The human plasma protein factor Xa was purchased; purchased Haematologic Technologies (Essex Junction, Vt.); host or cells: human plasma
Assay: Factor Xa IC50 determination (cleavage of paranitroanilide substrate S-2765)
Assay type: biochemical
Settings: fXa 1 nM, S2765 100 μM, Tris buffered saline pH 7.4, room temperature
Description: This example illustrates methods for evaluating the compounds of the invention, along with results obtained for such assays. The in vitro and in vivo Factor Xa isoform activities of the inventive compounds can be determined by various procedures known in the art, such as a test for their ability to inhibit the activity of the Factor Xa isoform. […] The IC50 value is the concentration (in nM) of the compound required to provide 50% inhibition of Factor Xa isoform.
An in vitro assay for detecting and measuring inhibition activity against Factor Xa is as follows:
IC50 and Ki Determinations:
The substrate S-2765 (Z-D-Arg-Gly-Arg-pNA.HCl) was obtained from Diapharma (West Chester, Ohio).
The human plasma protein factor Xa was purchased from Haematologic Technologies (Essex Junction, Vt.).
All assays, which are performed in 96-well microtiter plates, measure proteolytic activity of the enzyme (factor Xa) by following cleavage of paranitroanilide substrate. The assay buffer used for proteolytic assays was Tris buffered saline (20 mM Tris, 150 mM NaCl, 5 mM CaCl2, 0.1% Bovine serum albumin (BSA), 5% Dimethly Sulfoxide (DMSO) pH 7.4). In a 96-well microtiter plate, inhibitor was serially diluted to give a range of concentrations from 0.01 nM to 10 μM (final). Duplicate sets of wells were assayed and control wells without inhibitor were included. Enzyme was added to each well, (fXa concentration=1 nM), the plate was shaken for 5 seconds and then incubated for 5 minutes at room temperature. S2765 was added (100 μM final) and the plate was shaken for 5 seconds (final liquid volume in each well was 200 μl). The degree of substrate hydrolysis was measured at 405 nm on a Thermomax plate reader (Molecular Devices, Sunnyvale, Calif.) for 2 minutes. The initial velocities (mOD/min), for each range of inhibitor concentrations, were fitted to a four parameter equation using Softmax data analysis software. The parameter C, derived from the resulting curve-fit, corresponded to the concentration for half maximal inhibition (IC50).

T1 sequence (P00742 235-488 limits assumed): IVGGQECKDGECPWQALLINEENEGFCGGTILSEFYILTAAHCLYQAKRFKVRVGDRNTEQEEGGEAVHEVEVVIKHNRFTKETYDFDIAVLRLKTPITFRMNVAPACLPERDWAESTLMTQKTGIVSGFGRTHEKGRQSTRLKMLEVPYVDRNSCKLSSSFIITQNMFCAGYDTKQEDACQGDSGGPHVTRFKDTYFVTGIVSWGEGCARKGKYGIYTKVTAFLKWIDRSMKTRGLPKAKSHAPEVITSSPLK
T1 sequence (P00742 41-179 partner limits assumed): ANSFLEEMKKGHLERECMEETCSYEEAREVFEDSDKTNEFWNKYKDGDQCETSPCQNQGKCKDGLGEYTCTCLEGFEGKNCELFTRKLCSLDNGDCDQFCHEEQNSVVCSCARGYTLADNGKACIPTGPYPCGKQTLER

Row | Compound | pIC50
1 | CN1CCCN(c2ccc(NC(=O)C3Cc4sccc4CN3C(=O)Nc3ccc(Cl)cc3)cc2)CC1 (centres unmarked) [Example 27, N-[4-(4-methyl-homopiperazinyl)]phenyl-5N-(4-chlorophenylaminocarbonyl)-4,5,6,7-tetrahydro-thieno[3,2-c]pyridine-6-carboxamide] | ≥ 7.00
2 | CN1CCN=C1c1ccc(NC(=O)C2c3ccccc3CN2C(=O)Nc2ccc(Cl)cc2)cc1 (centres unmarked) [Example 28, N-[4-(1-methyl-4,5-dihydro-1H-imidazol-2-yl)phenyl]-2N-(4-chlorophenylaminocarbonyl)-2,3-dihydro-1H-isoindole-1-carboxamide] | ≥ 7.00
3 | O=C(Nc1ccc(-c2cccc[n+]2[O-])cc1)C1c2ccccc2CN1C(=O)Nc1ccc(Cl)cc1 (centres unmarked) [Example 29, N-[4-(1N-oxo-pyridin-2-yl)phenyl]-2N-(4-chlorophenylaminocarbonyl)-2,3-dihydro-1H-isoindole-1-carboxamide] | ≥ 7.00
4 | CN1CCCN(c2ccc(NC(=O)C3c4ccccc4CN3C(=O)Nc3ccc(Cl)cc3)cc2)CC1 (centres unmarked) [Example 30, N-[4-(4-methyl-homopiperazinyl)phenyl]-2N-(4-chlorophenylaminocarbonyl)-2,3-dihydro-1H-isoindole-1-carboxamide] | 6.30 to 7.00
5 | O=C(Nc1ccc(N2CCOCC2=O)cc1)C1c2ccccc2CN1C(=O)Nc1ccc(Cl)cc1 (centres unmarked) [Example 31, N-[4-(3-oxo-morpholin-4-yl)phenyl]-2N-(4-chlorophenylaminocarbonyl)-2,3-dihydro-1H-isoindole-1-carboxamide] | ≥ 7.00
6 | O=C(Nc1ccc(-c2cccc[n+]2[O-])cc1)C1Cc2ccccc2N1C(=O)Nc1ccc(Cl)cc1 (centres unmarked) [Example 32, N-[4-(1N-oxo-pyridin-2-yl)phenyl]-1N-(4-chlorophenylaminocarbonyl)-indoline-2-carboxamide] | 6.30 to 7.00
7 | CN1CCCN(c2ccc(NC(=O)[C@H]3Cc4ccccc4CN3C(=O)Nc3ccc(Cl)cc3)cc2)CC1 [Example 33, (3R) N-[4-(4-methyl-homopiperazinyl)]phenyl-2N-(4-chlorophenylaminocarbonyl)-1,2,3,4-tetrahydroisoquinoline-3-carboxamide] | ≥ 7.00
8 | CN1CCCN(c2ccc(NC(=O)[C@@H]3Cc4ccccc4CN3C(=O)Nc3ccc(Cl)cc3)cc2)CC1 [Example 34, (3S)N-[4-(4-methyl-homopiperazinyl)]phenyl-2N-(4-chlorophenylaminocarbonyl)-1,2,3,4-tetrahydroisoquinoline-3-carboxamide] | 6.30 to 7.00
9 | CN1CCCN(c2ccc(NC(=O)[C@H]3Cc4ccccc4CN3C(=O)Nc3ccc(Cl)cc3)c(F)c2)CC1 [Example 35, (3R) N-[4-(4-methyl-homopiperazinyl)-2-fluorophenyl]-2N-(4-chlorophenylaminocarbonyl)-1,2,3,4-tetrahydroisoquinoline-3-carboxamide] | ≥ 7.00
10 | O=C(Nc1ccc(-n2ccccc2=O)cc1)[C@H]1Cc2ccccc2CN1C(=O)Nc1ccc(Cl)cc1 [Example 36, (3R) N-[4-(2-pyridon-1-yl)phenyl]-2N-(4-chlorophenylaminocarbonyl)-1,2,3,4-tetrahydroisoquinoline-3-carboxamide] | ≥ 7.00
11 | O=C(Nc1ccc(-n2ccccc2=O)cc1)[C@@H]1Cc2ccccc2CN1C(=O)Nc1ccc(Cl)cc1 [Example 37, (3S)N-[4-(2-pyridon-1-yl)phenyl]-2N-(4-chlorophenylaminocarbonyl)-1,2,3,4-tetrahydroisoquinoline-3-carboxamide] | ≥ 7.00
12 | O=C(Nc1ccc(-n2ccccc2=O)cc1F)[C@H]1Cc2ccccc2CN1C(=O)Nc1ccc(Cl)cc1 [Example 38, (3R) N-[4-(2-pyridon-1-yl)-2-fluorophenyl]-2N-(4-chlorophenylaminocarbonyl)-1,2,3,4-tetrahydroisoquinoline-3-carboxamide] | ≥ 7.00
13 | O=C(Nc1ccc(-n2ccccc2=O)cc1)C1Cc2cc(O)ccc2CN1C(=O)Nc1ccc(Cl)cc1 (centres unmarked) [Example 39, N-[4-(2-pyridon-1-yl)phenyl]-2N-(4-chlorophenylaminocarbonyl)-6-hydroxy-1,2,3,4-tetrahydroisoquinoline-3-carboxamide] | ≥ 7.00
14 | CN1CCCN(c2ccc(NC(=O)C3Cc4cc(O)ccc4CN3C(=O)Nc3ccc(Cl)cc3)cc2)CC1 (centres unmarked) [Example 40, N-[4-(4-methyl-homopiperazinyl)phenyl]-2N-(4-chlorophenylaminocarbonyl)-6-hydroxy-1,2,3,4-tetrahydroisoquinoline-3-carboxamide] | ≥ 7.00
15 | O=C(Nc1ccc(-n2ccccc2=S)cc1)C1Cc2cc(O)ccc2CN1C(=O)Nc1ccc(Cl)cc1 (centres unmarked) [Example 41, N-[4-(2-thiopyridon-1-yl)phenyl]-2N-(4-chlorophenylaminocarbonyl)-6-hydroxy-1,2,3,4-tetrahydroisoquinoline-3-carboxamide] | ≥ 7.00
16 | O=C([C@H]1Cc2ccccc2CN1C(=O)Nc1ccc(Cl)cc1)N1CCC(N2CCCCC2=O)CC1 [Example 42, (3R) 4-(2-piperidinon-1-yl)piperidin-1-yl 2N-(4-chlorophenylaminocarbonyl)-1,2,3,4-tetrahydroisoquinoline-3-carboxamide] | ≥ 7.00
17 | O=C([C@H]1Cc2ccccc2CN1C(=O)Nc1ccc(Cl)cc1)N1CCC(n2ccccc2=O)CC1 [Example 43, (3R) 4-(2-pyridon-1-yl)piperidin-1-yl 2N-(4-chlorophenylaminocarbonyl)-1,2,3,4-tetrahydroisoquinoline-3-carboxamide] | ≥ 7.00
18 | O=C([C@H]1Cc2ccccc2CN1C(=O)Nc1ccc(Cl)cc1)N1CCC(N2CCOCC2=O)CC1 [Example 44, (3R) 4-(3-morpholinon-4-yl)piperidin-1-yl 2N-(4-chlorophenylaminocarbonyl)-1,2,3,4-tetrahydroisoquinoline-3-carboxamide] | ≥ 7.00
19 | CN1CCN(c2ccc(NC(=O)[C@H]3Cc4ccccc4CN3C(=O)Nc3ccc(Cl)cc3)cc2)C(=O)C1 [Example 45, (3R) N-[4-(4-methyl-2-piperazinon-1-yl)phenyl]-2N-(4-chlorophenylaminocarbonyl)-1,2,3,4-tetrahydroisoquinoline-3-carboxamide] | 6.30 to 7.00
20 | CN1CCCN(c2ccc(NC(=O)[C@H]3Cc4ccccc4CN3C(=O)Nc3ccc(Cl)cc3)cc2)C(=O)C1 [Example 46, (3R) N-[4-(4-methyl-2-homopiperazinon-1-yl)phenyl]-2N-(4-chlorophenylaminocarbonyl)-1,2,3,4-tetrahydroisoquinoline-3-carboxamide] | ≥ 7.00
21 | O=C(Nc1ccc(-n2ccccc2=O)cc1)[C@H]1Cc2ccccc2CN1C(=O)Nc1ccc(F)cc1 [Example 47, (3R) N-[4-(2-pyridon-1-yl)phenyl]-2N-(4-fluorophenylaminocarbonyl)-1,2,3,4-tetrahydroisoquinoline-3-carboxamide] | ≥ 7.00
22 | O=C(Nc1ccc(-n2ccccc2=O)cc1)[C@H]1Cc2ccccc2CN1C(=O)Nc1ccc(Cl)s1 [Example 48, (3R) N-[4-(2-pyridon-1-yl)phenyl]-2N-[5-(2-chlorothiophene)aminocarbonyl]-1,2,3,4-tetrahydroisoquinoline-3-carboxamide] | ≥ 7.00
23 | CN1CCCN(c2ccc(NC(=O)[C@H]3Cc4ccccc4CN3C(=O)Nc3ccc(Cl)s3)cc2)CC1 [Example 49, (3R) N-[4-(4-methyl-homopiperazin-1-yl)phenyl]-2N-[5-(2-chlorothiophene)aminocarbonyl]-1,2,3,4-tetrahydroisoquinoline-3-carboxamide] | ≥ 7.00
